Laboratory results: patent US10577317B2, “Crystal forms and production methods thereof” (Sunovion Pharmaceuticals Inc., priority 2017, dated 2020)
Like-named read-outs stand apart in the source and are kept apart here.

How the values were obtained:
Assay type in all cases: physicochemical
[1] = DVS water sorption isotherm, 25° C. scanned over 0 to 95% relative humidity (hygroscopicity)
Text: In various embodiments, the hygroscopicity of crystal forms of racemic amisulpride, enantiomeric amisulpride, and enantiomeric amisulpride solvates are characterized by dynamic vapor sorption (DVS). DVS is a gravimetric technique that measures how much of a solvent is absorbed by a sample by varying the vapor concentration surrounding the sample (e.g., relative humidity) and measuring the change in mass. In the present application, DVS is used to generate water sorption isotherms, which represent the equilibrium amount of vapor sorbed as a function of steady state relative vapor pressure at a constant temperature.

[2] = Solid form stability on storage at 25° C. and 60% relative humidity; conditions: after 4 months at 25° C. and 60% relative humidity (RH)
[3] = Solubility (mg/mL) in water, buffers, simulated fluids and organic solvents (Table 1)
[4] = DVS, 25° C., 0 to 95% relative humidity

- maximum mass change in water sorption isotherms [1, 4]: 0.35%
- average maximum mass change based on the data of Tables 6B and 6C ([1]; DVS, Tables 6B and 6C only): about 0.16%
- average maximum mass change ([1]; DVS, average over the samples of Tables 6A-6C (Form A′) or 6D-6E (Form A)): about 0.22%
- Change Mass ([1]; FIG. 3D, RH 0 %, elapse time 60.72 min, sorption): 0.00 wt %
- Change Mass ([1]; FIG. 3D, RH 1 %, elapse time 32.02 min, desorption): −0.01 wt %
- Change Mass ([1]; FIG. 3D, RH 10 %, elapse time 31.00 min, desorption): 0.01 wt %
- Change Mass ([1]; FIG. 3D, RH 10 %, elapse time 33.25 min, sorption): 0.03 wt %
- Change Mass ([1]; FIG. 3D, RH 20 %, elapse time 31.89 min, sorption): 0.05 wt %
- Change Mass ([1]; FIG. 3D, RH 20 %, elapse time 32.05 min, desorption): 0.03 wt %
- Change Mass ([1]; FIG. 3D, RH 30 %, elapse time 32.20 min, sorption): 0.07 wt %
- Change Mass ([1]; FIG. 3D, RH 30 %, elapse time 62.67 min, desorption): 0.05 wt %
- Change Mass ([1]; FIG. 3D, RH 40 %, elapse time 31.41 min, desorption): 0.07 wt %
- Change Mass ([1]; FIG. 3D, RH 40 %, elapse time 31.53 min, sorption): 0.09 wt %
- Change Mass ([1]; FIG. 3D, RH 50 %, elapse time 31.95 min, sorption): 0.11 wt %
- Change Mass ([1]; FIG. 3D, RH 50 %, elapse time 32.12 min, desorption): 0.08 wt %
- Change Mass ([1]; FIG. 3D, RH 60 %, elapse time 31.87 min, sorption): 0.13 wt %
- Change Mass ([1]; FIG. 3D, RH 60 %, elapse time 32.10 min, desorption): 0.11 wt %
- Change Mass ([1]; FIG. 3D, RH 70 %, elapse time 31.10 min, sorption): 0.16 wt %
- Change Mass ([1]; FIG. 3D, RH 70 %, elapse time 31.50 min, desorption): 0.14 wt %
- Change Mass ([1]; FIG. 3D, RH 75 %, elapse time 31.01 min, desorption): 0.16 wt %
- Change Mass ([1]; FIG. 3D, RH 75 %, elapse time 31.28 min, sorption): 0.18 wt %
- Change Mass ([1]; FIG. 3D, RH 80 %, elapse time 31.43 min, sorption): 0.19 wt %
- Change Mass ([1]; FIG. 3D, RH 80 %, elapse time 32.11 min, desorption): 0.17 wt %
- Change Mass ([1]; FIG. 3D, RH 90 %, elapse time 31.35 min, desorption): 0.28 wt %
- Change Mass ([1]; FIG. 3D, RH 90 %, elapse time 31.97 min, sorption): 0.25 wt %
- Change Mass ([1]; FIG. 3D, RH 95 %, elapse time 32.77 min, sorption): 0.34 wt %
- Change Mass ([1]; FIG. 3D, RH 95 %, elapse time 36.47 min, desorption): 0.35 wt %
- Change Mass ([1]; FIG. 3E, RH 1.33 %, elapse time 60.4 min): 0.000 wt %
- Change Mass ([1]; FIG. 3E, RH 5.06 %, elapse time 923.6 min): −0.028 wt %
- Change Mass ([1]; FIG. 3E, RH 5.09 %, elapse time 590.9 min): −0.004 wt %
- Change Mass ([1]; FIG. 3E, RH 5.15 %, elapse time 243.7 min): −0.010 wt %
- Change Mass ([1]; FIG. 3E, RH 9.91 %, elapse time 260.3 min): −0.006 wt %
- Change Mass ([1]; FIG. 3E, RH 9.94 %, elapse time 598.9 min): 0.000 wt %
- Change Mass ([1]; FIG. 3E, RH 10.06 %, elapse time 582.9 min): 0.003 wt %
- Change Mass ([1]; FIG. 3E, RH 10.08 %, elapse time 915.6 min): −0.023 wt %
- Change Mass ([1]; FIG. 3E, RH 14.90 %, elapse time 606.9 min): 0.004 wt %
- Change Mass ([1]; FIG. 3E, RH 14.99 %, elapse time 270.3 min): 0.000 wt %
- Change Mass ([1]; FIG. 3E, RH 15.08 %, elapse time 574.9 min): 0.010 wt %
- Change Mass ([1]; FIG. 3E, RH 15.12 %, elapse time 907.6 min): −0.017 wt %
- Change Mass ([1]; FIG. 3E, RH 19.74 %, elapse time 278.3 min): 0.006 wt %
- Change Mass ([1]; FIG. 3E, RH 19.88 %, elapse time 614.9 min): 0.009 wt %
- Change Mass ([1]; FIG. 3E, RH 20.10 %, elapse time 566.9 min): 0.017 wt %
- Change Mass ([1]; FIG. 3E, RH 20.12 %, elapse time 899.6 min): −0.012 wt %
- Change Mass ([1]; FIG. 3E, RH 24.83 %, elapse time 623.9 min): 0.014 wt %
- Change Mass ([1]; FIG. 3E, RH 24.90 %, elapse time 891.6 min): −0.007 wt %
- Change Mass ([1]; FIG. 3E, RH 24.92 %, elapse time 287.8 min): 0.013 wt %
- Change Mass ([1]; FIG. 3E, RH 24.95 %, elapse time 558.9 min): 0.024 wt %
- Change Mass ([1]; FIG. 3E, RH 29.82 %, elapse time 296.8 min): 0.019 wt %
- Change Mass ([1]; FIG. 3E, RH 29.84 %, elapse time 632.9 min): 0.019 wt %
- Change Mass ([1]; FIG. 3E, RH 30.09 %, elapse time 551.4 min): 0.031 wt %
- Change Mass ([1]; FIG. 3E, RH 30.10 %, elapse time 884.1 min): −0.001 wt %
- Change Mass ([1]; FIG. 3E, RH 34.80 %, elapse time 305.8 min): 0.026 wt %
- Change Mass ([1]; FIG. 3E, RH 34.87 %, elapse time 641.9 min): 0.024 wt %
- Change Mass ([1]; FIG. 3E, RH 34.94 %, elapse time 875.6 min): 0.005 wt %
- Change Mass ([1]; FIG. 3E, RH 34.95 %, elapse time 543.9 min): 0.038 wt %
- Change Mass ([1]; FIG. 3E, RH 39.84 %, elapse time 314.8 min): 0.033 wt %
- Change Mass ([1]; FIG. 3E, RH 39.90 %, elapse time 865.6 min): 0.011 wt %
- Change Mass ([1]; FIG. 3E, RH 39.92 %, elapse time 533.9 min): 0.045 wt %
- Change Mass ([1]; FIG. 3E, RH 39.94 %, elapse time 650.9 min): 0.028 wt %
- Change Mass ([1]; FIG. 3E, RH 44.92 %, elapse time 659.9 min): 0.034 wt %
- Change Mass ([1]; FIG. 3E, RH 45.02 %, elapse time 325.8 min): 0.040 wt %
- Change Mass ([1]; FIG. 3E, RH 45.04 %, elapse time 523.9 min): 0.053 wt %
- Change Mass ([1]; FIG. 3E, RH 45.07 %, elapse time 856.1 min): 0.018 wt %
- Change Mass ([1]; FIG. 3E, RH 49.78 %, elapse time 334.8 min): 0.047 wt %
- Change Mass ([1]; FIG. 3E, RH 49.88 %, elapse time 668.9 min): 0.040 wt %
- Change Mass ([1]; FIG. 3E, RH 50.07 %, elapse time 845.0 min): 0.026 wt %
- Change Mass ([1]; FIG. 3E, RH 50.10 %, elapse time 512.9 min): 0.060 wt %
- Change Mass ([1]; FIG. 3E, RH 54.90 %, elapse time 345.8 min): 0.055 wt %
- Change Mass ([1]; FIG. 3E, RH 54.96 %, elapse time 679.9 min): 0.046 wt %
- Change Mass ([1]; FIG. 3E, RH 55.12 %, elapse time 501.9 min): 0.067 wt %
- Change Mass ([1]; FIG. 3E, RH 55.14 %, elapse time 834.0 min): 0.035 wt %
- Change Mass ([1]; FIG. 3E, RH 59.94 %, elapse time 356.8 min): 0.062 wt %
- Change Mass ([1]; FIG. 3E, RH 59.95 %, elapse time 688.9 min): 0.053 wt %
- Change Mass ([1]; FIG. 3E, RH 60.08 %, elapse time 490.9 min): 0.075 wt %
- Change Mass ([1]; FIG. 3E, RH 60.19 %, elapse time 823.0 min): 0.044 wt %
- Change Mass ([1]; FIG. 3E, RH 64.92 %, elapse time 699.9 min): 0.060 wt %
- Change Mass ([1]; FIG. 3E, RH 65.00 %, elapse time 365.8 min): 0.071 wt %
- Change Mass ([1]; FIG. 3E, RH 65.13 %, elapse time 814.0 min): 0.053 wt %
- Change Mass ([1]; FIG. 3E, RH 65.14 %, elapse time 479.9 min): 0.081 wt %
- Change Mass ([1]; FIG. 3E, RH 69.90 %, elapse time 710.9 min): 0.067 wt %
- Change Mass ([1]; FIG. 3E, RH 69.95 %, elapse time 376.8 min): 0.081 wt %
- Change Mass ([1]; FIG. 3E, RH 70.05 %, elapse time 468.9 min): 0.088 wt %
- Change Mass ([1]; FIG. 3E, RH 70.16 %, elapse time 803.0 min): 0.062 wt %
- Change Mass ([1]; FIG. 3E, RH 74.60 %, elapse time 385.8 min): 0.089 wt %
- Change Mass ([1]; FIG. 3E, RH 74.67 %, elapse time 719.9 min): 0.074 wt %
- Change Mass ([1]; FIG. 3E, RH 75.19 %, elapse time 457.9 min): 0.096 wt %
- Change Mass ([1]; FIG. 3E, RH 75.43 %, elapse time 792.0 min): 0.073 wt %
- Change Mass ([1]; FIG. 3E, RH 79.52 %, elapse time 728.9 min): 0.081 wt %
- Change Mass ([1]; FIG. 3E, RH 79.61 %, elapse time 394.8 min): 0.098 wt %
- Change Mass ([1]; FIG. 3E, RH 80.43 %, elapse time 783.0 min): 0.084 wt %
- Change Mass ([1]; FIG. 3E, RH 80.44 %, elapse time 448.8 min): 0.105 wt %
- Change Mass ([1]; FIG. 3E, RH 84.52 %, elapse time 403.8 min): 0.109 wt %
- Change Mass ([1]; FIG. 3E, RH 84.80 %, elapse time 737.9 min): 0.090 wt %
- Change Mass ([1]; FIG. 3E, RH 85.39 %, elapse time 774.0 min): 0.096 wt %
- Change Mass ([1]; FIG. 3E, RH 85.43 %, elapse time 439.8 min): 0.117 wt %
- Change Mass ([1]; FIG. 3E, RH 89.49 %, elapse time 412.8 min): 0.123 wt %
- Change Mass ([1]; FIG. 3E, RH 89.52 %, elapse time 746.9 min): 0.103 wt %
- Change Mass ([1]; FIG. 3E, RH 90.18 %, elapse time 430.8 min): 0.129 wt %
- Change Mass ([1]; FIG. 3E, RH 90.24 %, elapse time 765.0 min): 0.109 wt %
- Change Mass ([1]; FIG. 3E, RH 94.51 %, elapse time 421.8 min): 0.142 wt %
- Change Mass ([1]; FIG. 3E, RH 94.81 %, elapse time 756.0 min): 0.122 wt %
- Change Mass ([1]; FIG. 3F, RH 19.77 %, elapse time 317.2 min): 0.035 wt %
- Change Mass ([1]; FIG. 3F, RH 24.90 %, elapse time 326.2 min): 0.042 wt %
- solubility ([3]; aqueous buffer, 0.05M Acetate Buffer, solution pH 4.5, read-out: Solubility (mg/mL): 0.05M Acetate Buffer): > 100 mg/mL
- solubility ([3]; pH 1.1, Simulated Gastric Fluid (no enzyme), pH adjusted to 1.1 (Form A), 1.2 (Form A′), read-out: Solubility (mg/mL): Simulated Gastric Fluid (no enzyme)): > 100 mg/mL
- solubility ([3]; pH 6.7, fassgf or other biorelevant, Simulated Intestinal Fluid (no enzyme), pH adjusted to 6.7 (Form A), 6.9 (Form A′), read-out: Solubility (mg/mL): Simulated Intestinal Fluid (no enzyme)): > 100 mg/mL
SMILES: CCN1CCC[C@H]1CNC(=O)c1cc(S(=O)(=O)CC)c(N)cc1OC [(S)-amisulpride Form A′, S-4-Amino-N-[(1-ethyl-2-pyrrolidinyl)methyl]-5-(ethylsulfonyl)-2-methoxybenzamide]
- hygroscopicity [1, 4]: substantially non-hygroscopic (less than a 1% maximum mass change in water sorption isotherms, at 25 °C scanned over 0 to 95% relative humidity)
- thermodynamic stability of crystal form (conversion to other polymorphs or amorphous form) [2]: not substantially converting to other polymorphs or amorphous form
